Laboratory results from US20080090805A1, “CB-1 MODULATING COMPOUNDS AND THEIR USE” (ACADIA PHARMACEUTICALS INC., priority 2005, published 2008).

Target: native CB1 receptors (Rattus norvegicus, UniProt P20272)
Test: CB1 receptor rat binding assay ([3H]SR141716A, rat brain membranes)
Details: rat brain membranes, [3H]SR141716A; for Ki: read-out: Binding rat pKi (converted)

Chain of native CB1 receptors (P20272 whole entry): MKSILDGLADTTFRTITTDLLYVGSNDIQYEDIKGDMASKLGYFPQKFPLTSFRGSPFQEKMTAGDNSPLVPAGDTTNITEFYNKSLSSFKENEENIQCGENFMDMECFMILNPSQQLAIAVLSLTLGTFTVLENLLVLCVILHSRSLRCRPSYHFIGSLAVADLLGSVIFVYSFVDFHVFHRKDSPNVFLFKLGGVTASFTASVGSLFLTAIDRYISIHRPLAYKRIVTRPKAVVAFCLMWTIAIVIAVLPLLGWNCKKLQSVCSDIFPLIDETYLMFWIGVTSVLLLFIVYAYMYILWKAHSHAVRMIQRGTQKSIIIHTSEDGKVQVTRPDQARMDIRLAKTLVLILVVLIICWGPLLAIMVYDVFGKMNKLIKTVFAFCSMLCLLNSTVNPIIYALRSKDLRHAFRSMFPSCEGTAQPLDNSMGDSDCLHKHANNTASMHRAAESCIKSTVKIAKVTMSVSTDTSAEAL

Row | Compound | Binding rat Inh % | Ki | Binding rat pKi
1 | Cc1ccsc1C1=Nc2cc(C(=O)NN3CCCCCC3)ccc2Sc2ccccc21 [drawing 1507] | 76% | 10 nM | 
2 | CC(C)CNC(=O)c1ccc2c(c1)N=C(c1ccc(Cl)s1)c1ccccc1S2 [drawing 1201] |  |  | 8.6
3 | O=C(NCc1ccccn1)c1ccc2c(c1)N=C(c1ccc(Br)cc1)c1ccccc1S2 [drawing 1469] | 71% | 50.1 nM | 
4 | O=C(NCc1cccs1)c1ccc2c(c1)N=C(c1cccc(F)c1)c1ccccc1S2 [drawing 1384] | 95% | 5.01 nM | 
5 | O=C(NC1CCCCC1)c1ccc2c(c1)N=C(c1cccc(F)c1)c1ccccc1S2 [drawing 1306] | 84% | 3.16 nM | 
6 | O=C(NCCc1cccc(Cl)c1)c1ccc2c(c1)N=C(N1CCCCC1)c1ccccc1S2 [drawing 1222] |  | 15.8 nM | 
7 | CC(C)CNC(=O)c1ccc2c(c1)N=C(c1cccc(Cl)c1)c1ccccc1S2 [drawing 1361] | 99% | 3.98 nM | 
8 | CCCCNC(=O)c1ccc2c(c1)N=C(c1ccc(OC)cc1)c1ccccc1S2 [drawing 1532] | 82% | 10 nM | 
9 | CCCCNC(=O)c1ccc2c(c1)N=C(c1ccccc1F)c1ccccc1S2 [drawing 1348] |  | 25.1 nM | 
10 | O=C(NCc1ccccc1Br)c1ccc2c(c1)N=C(c1ccccc1)c1ccccc1S2 [drawing 1483] |  | 63.1 nM | 
11 | CCCC1=Nc2cc(C(=O)NCCN(CC)c3ccccc3)ccc2Sc2ccccc21 [drawing 1292] |  | 20 nM | 
12 | O=C(NCc1ccccc1Br)c1ccc2c(c1)N=C(c1ccc(Cl)cc1)c1ccccc1S2 [drawing 1388] |  | 31.6 nM | 
13 | O=C(NCCc1cccc(Cl)c1)c1ccc2c(c1)N=C(c1ccc(Cl)cc1)c1ccccc1S2 [drawing 1283] |  | 20 nM | 
14 | C[C@@H]1CCC[C@H](C)N1NC(=O)c1ccc2c(c1)N=C(c1ccc(Cl)c(Cl)c1)c1ccccc1S2 [drawing 1393] | 114% | 5.01 nM | 
15 | COc1ccc(C2=Nc3cc(C(=O)NCc4cccnc4)ccc3Sc3ccccc32)cc1 [drawing 1438] | 60% | 50.1 nM | 
16 | COc1ccc(C2=Nc3cc(C(=O)NC4CCCCC4)ccc3Sc3ccccc32)cc1 [drawing 1282] | 91% | 2 nM | 
17 | COc1cccc(C2=Nc3cc(C(=O)NCc4ccc(C)o4)ccc3Sc3ccccc32)n1 [drawing 1458] | 90% | 7.94 nM | 
18 | O=C(NCc1ccccc1Cl)c1ccc2c(c1)N=C(c1cccc(Cl)c1)c1ccccc1S2 [drawing 1415] |  | 6.31 nM | 
19 | O=C(NCCC(F)(F)F)c1ccc2c(c1)N=C(c1ccc(Cl)cc1)c1ccccc1S2 [drawing 1360] | 99% | 3.98 nM | 
20 | O=C(NC1CCC(F)(F)CC1)c1ccc2c(c1)N=C(c1ccc(Cl)cc1)c1ccccc1S2 | 90% | 2.51 nM | 
21 | Cc1ccsc1C1=Nc2cc(C(=O)NC3CCCCC3)ccc2Sc2ccccc21 [drawing 1531] | 72% | 10 nM | 
22 | COc1ccc(C2=Nc3cc(C(=O)NC4CCCC4)ccc3Sc3ccccc32)cc1 [drawing 1364] | 71% | 31.6 nM | 
23 | O=C(NCCc1cccnc1)c1ccc2c(c1)N=C(c1cccc(F)c1)c1ccccc1S2 [drawing 1333] | 94% | 25.1 nM | 
24 | O=C(NN1CCCCCC1)c1ccc2c(c1)N=C(c1ccc(Cl)cc1F)c1ccccc1S2 [drawing 1386] | 84% | 5.01 nM | 

Row | Compound | Binding rat Inh % | Ki | Binding rat pKi
25 | CCCCNC(=O)c1ccc2c(c1)N=C(c1ccc(Cl)cc1)c1ccc(Cl)cc1S2 [drawing 1187] | 94% | 12.6 nM | 
26 | CC(C)NC(=O)c1ccc2c(c1)N=C(c1ccc(Cl)cc1F)c1ccccc1S2 [drawing 1363] | 72% | 31.6 nM | 
27 | O=C(NCc1ccccc1Cl)c1ccc2c(c1)N=C(c1ccc(Cl)cc1)c1ccccc1S2 [drawing 1341] |  | 25.1 nM | 
28 | Cc1ccsc1C1=Nc2cc(C(=O)NCCCC(F)(F)F)ccc2Sc2ccccc21 [drawing 1225] | 109% | 0.631 nM | 
29 | O=C(NCCc1ccc(Cl)cc1)c1ccc2c(c1)N=C(c1cccc(Cl)c1)c1ccccc1S2 [drawing 1281] |  | 2 nM | 
30 | CCCCNC(=O)c1ccc2c(c1)N=C(c1ccc(Cl)cn1)c1ccccc1S2 [drawing 1501] | 98% | 10 nM | 
31 | CCCCNC(=O)c1ccc2c(c1)N=C(N1CCCCC1)c1ccccc1S2 [drawing 1325] |  | 25.1 nM | 
32 | C[C@@H]1CCC[C@H](C)N1NC(=O)c1ccc2c(c1)N=C(c1ccc(Cl)cc1F)c1ccccc1S2 [drawing 1474] | 71% | 7.94 nM | 
33 | O=C(NC1CCCC1)c1ccc2c(c1)N=C(c1ccc(Cl)s1)c1ccccc1S2 [drawing 1542] | 91% | 12.6 nM | 
34 | CCOCCNC(=O)c1ccc2c(c1)N=C(c1ccc(Cl)cc1)c1ccccc1S2 [drawing 1504] | 71% | 79.4 nM | 
35 | CCCNC(=O)c1ccc2c(c1)N=C(c1ccc(OC)cc1)c1ccccc1S2 [drawing 1403] | 80% | 39.8 nM | 
36 | O=C(NCc1ccncc1)c1ccc2c(c1)N=C(c1ccc(Cl)cc1)c1ccccc1S2 [drawing 1294] | 77% | 20 nM | 
37 | O=C(NCCCc1ccccc1)c1ccc2c(c1)N=C(c1ccccc1)c1ccccc1S2 [drawing 1450] |  | 7.94 nM | 
38 | CC(C)CCNC(=O)c1ccc2c(c1)N=C(c1ccccc1F)c1ccccc1S2 [drawing 1509] | 85% | 10 nM | 
39 | O=C(NCc1ccc(Cl)cc1Cl)c1ccc2c(c1)N=C(c1ccc(Cl)cc1)c1ccccc1S2 [drawing 1421] |  | 39.8 nM | 
40 | O=C(NCc1ccccc1Cl)c1ccc2c(c1)N=C(c1ccc(F)cc1)c1ccccc1S2 [drawing 1291] |  | 20 nM | 
41 | O=C(NCCc1cccc(Cl)c1)c1ccc2c(c1)N=C(c1ccccc1F)c1ccccc1S2 [drawing 1459] |  | 50.1 nM | 
42 | O=C(NCc1cccc(Cl)c1)c1ccc2c(c1)N=C(N1CCCCC1)c1ccccc1S2(=O)=O [drawing 1428] |  | 50.1 nM | 
43 | O=C(NCCCC(F)(F)F)c1ccc2c(c1)N=C(c1ccc(Cl)cc1)c1ccccc1S2 [drawing 1226] | 89% | 0.631 nM | 
44 | O=C(NCc1ccccn1)c1ccc2c(c1)N=C(c1ccc(Cl)cc1)c1ccccc1S2 [drawing 1270] | 112% | 20 nM | 
45 | CCOCCNC(=O)c1ccc2c(c1)N=C(c1ccc(F)cc1)c1ccccc1S2 [drawing 1446] | 63% | 50.1 nM | 
46 | CCN(CCNC(=O)c1ccc2c(c1)N=C(c1ccc(Cl)cc1)c1ccccc1S2)c1ccccc1 [drawing 1489] |  | 10 nM | 
47 | O=C(NCc1ccco1)c1ccc2c(c1)N=C(c1ccc(Cl)c(Cl)c1)c1ccccc1S2 [drawing 1402] | 84% | 6.31 nM | 
48 | O=C(NC1CCC(F)(F)CC1)c1ccc2c(c1)N=C(c1ccccn1)c1ccccc1S2 [drawing 1414] | 73% | 39.8 nM | 

Row | Compound | Binding rat Inh % | Ki | Binding rat pKi
49 | Cc1ccc(N2CCN(C(=O)c3ccc4c(c3)N=C(c3ccc(Cl)cc3)c3ccccc3S4)CC2)c(C)c1 [drawing 1546] |  | 100 nM | 
50 | COCCNC(=O)c1ccc2c(c1)N=C(c1cccc(Cl)c1)c1ccccc1S2 [drawing 1461] | 80% | 50.1 nM | 
51 | O=C(NCCc1ccncc1)c1ccc2c(c1)N=C(c1cccc(F)c1)c1ccccc1S2 [drawing 1389] | 88% | 31.6 nM | 
52 | O=C(NC1CCCC1)c1ccc2c(c1)N=C(c1ccc(F)cc1)c1ccccc1S2 [drawing 1268] | 84% | 20 nM | 
53 | O=C(NCc1ccncc1)c1ccc2c(c1)N=C(c1ccc(Br)cc1)c1ccccc1S2 [drawing 1453] | 80% | 50.1 nM | 
54 | O=C(NCCc1ccc(Cl)cc1)c1ccc2c(c1)N=C(c1ccc(Cl)cc1)c1ccccc1S2 [drawing 1376] |  | 5.01 nM | 
55 | CC(C)CNC(=O)c1ccc2c(c1)N=C(c1ccc(Br)cc1)c1ccccc1S2 [drawing 1354] | 77% | 3.98 nM | 
56 | O=C(NCCc1ccncc1)c1ccc2c(c1)N=C(c1ccc(Cl)c(Cl)c1)c1ccccc1S2 [drawing 1497] | 123% | 10 nM | 
57 | O=C(NCCc1cccc(Cl)c1)c1ccc2c(c1)N=C(c1ccc(F)cc1)c1ccccc1S2 [drawing 1179] |  | 12.6 nM | 
58 | CCCCNC(=O)c1ccc2c(c1)N=C(c1cccc(F)c1)c1ccccc1S2 [drawing 1498] | 82% | 10 nM | 
59 | O=C(NCCc1ccccc1)c1ccc2c(c1)N=C(N1CCCCC1)c1ccccc1S2 [drawing 1470] |  | 63.1 nM | 
60 | O=C(NCCc1ccc(Cl)cc1)c1ccc2c(c1)N=C(c1ccccc1F)c1ccccc1S2 [drawing 1228] |  | 15.8 nM | 
61 | O=C(NCc1ccccc1)c1ccc2c(c1)N=C(c1cccc(Cl)c1)c1ccccc1S2 [drawing 1328] |  | 3.16 nM | 
62 | O=C(NCCc1ccncc1)c1ccc2c(c1)N=C(c1ccc(F)cc1)c1ccccc1S2 [drawing 1220] | 103% | 15.8 nM | 
63 | O=C(NCc1cccs1)c1ccc2c(c1)N=C(c1ccccn1)c1ccccc1S2 [drawing 1381] | 109% | 31.6 nM | 
64 | CCCCNC(=O)c1ccc2c(c1)N=C(C1CCCCC1)c1ccccc1S2 [drawing 1417] |  | 6.31 nM | 
65 | O=C(NCc1cccc(Cl)c1)c1ccc2c(c1)N=C(c1ccc(Cl)cc1)c1ccccc1S2 [drawing 1257] |  | 1.26 nM | 
66 | O=C(NN1CCCCC1)c1ccc2c(c1)N=C(c1ccccc1)c1ccccc1S2 [drawing 1462] |  | 50.1 nM | 
67 | CC(CNC(=O)c1ccc2c(c1)N=C(c1cccc(Cl)c1)c1cc(F)ccc1S2)c1ccccc1 (centres unmarked) [drawing 1196] |  | 12.6 nM | 
68 | O=C(NCc1ccc(F)cc1)c1ccc2c(c1)N=C(N1CCCCC1)c1ccccc1S2 [drawing 1212] |  | 12.6 nM | 
69 | CC(NC(=O)c1ccc2c(c1)N=C(c1ccccc1F)c1ccccc1S2)c1ccccc1 (centres unmarked) [drawing 1422] |  | 39.8 nM | 
70 | O=C(NCCc1ccccc1)c1ccc2c(c1)N=C(c1ccc(Cl)cc1)c1ccccc1S2 [drawing 1295] |  | 2.51 nM | 
